# Assay results as given in patent publication US8143313B2, “Compositions and methods for preventing or treating an inflammatory response” (McGill University, priority 2004, dated 2012).
# Legend:
# [1] = test system: CFTR-deficient human epithelial cells (CFTE29o-); test: Proliferation (viable cell counts) of CFTR-deficient human epithelial cells; type: cell-based
# Protocol: CFTE29o- (0.6×10^6/well in a 24-well plate) cells were incubated with 1.25 μM, 2.5 μM or 5 μM of fenretinide for 24 hours in a MEM containing 10% FBS. Vehicle control wells contained ethanol (EtOH) at concentrations equivalent to those used with fenretinide treatments.
# CFTE29o- cells were incubated with 1.25 μM, 2.5 μM or 5 μM of fenretinide for 24 hours in a MEM containing 10% FBS. After 24 hours, the medium was replaced by MEM 2% FBS containing the same concentrations of fenretinide and stimulated with TNF-α for another 24 hours. Viable cell counts were determined.
# (§1) Treatment with Fenretinide and TNF-α. Normal and CFTR-deficient cells were treated with fenretinide (Wang, et al. (2001) Cancer Res. 61:5102-5105; Erdreich-Epstein, et al. (2002) supra) at doses known to effectively increase cellular ceramide content in cell culture. Normal (9HTEo-; 0.4×10^6 cells/well) and CFTR-deficient human epithelial cells (CFTE29o- ΔF508 CFTR; 0.6×10^6 cells/well) were incubated for 24 hours at 37° C. in 5% CO2 with 1.25 μM, 2.5 μM or 5 μM fenretinide in Eagle's minimum essential medium (MEM) containing 10% fetal bovine serum (FBS). Subsequently, the medium was replaced with fresh MEM 2% FBS containing the same initial concentrations of fenretinide and cells were grown for an additional 24 hours to characterize the impact of fenretinide on IL-8 release in a non-inflammatory condition. To characterize the inflammatory condition, cells were treated with MEM 2% FBS containing 1.25 μM, 2.5 μM or 5 μM fenretinide and concurrently stimulated with human recombinant TNF-α (10 ng/mL) for another 24 hours. All experiments included unstimulated negative control wells.
# (§2) Cell viability was assessed using a 3-(4,5-dimethylthiazol-2-yl)-2,5-diphenyltetrazolium bromide (MTT) assay according to standard methods (Mosmann, T. (1983) J. Immunol. Methods. 65:55-63). […] Cells were incubated for 4 hours at 37° C., supernatant was aspirated, HCl-isopropanol solution (0.04 N HCl in isopropanol) was added, and after 5 minutes the optical densities were measured at 540 nm. […]
# [2] = test system: normal human epithelial cells (9HTEo-); test: Proliferation (viable cell counts) of normal human epithelial cells; type: cell-based; conditions: pro-inflammatory and non-inflammatory state, in particular 2.5 μM and higher
# Protocol: 9HTEo- (0.4×10^6/well in a 24-well plate) cells were incubated with 1.25 μM, 2.5 μM or 5 μM of fenretinide for 24 hours in a MEM containing 10% FBS. Vehicle control wells contained ethanol (EtOH) at concentrations equivalent to those used with fenretinide treatments.
# 9HTEo- cells were incubated with 1.25 μM, 2.5 μM or 5 μM of fenretinide for 24 hours in a MEM containing 10% FBS. After 24 hours, the medium was replaced by MEM 2% FBS containing the same concentrations of fenretinide and stimulated with TNF-α for another 24 hours.
# Treatment with Fenretinide and TNF-α. Normal and CFTR-deficient cells were treated with fenretinide (Wang, et al. (2001) Cancer Res. 61:5102-5105; Erdreich-Epstein, et al. (2002) supra) at doses known to effectively increase cellular ceramide content in cell culture. […]
# as §2
# [3] = oral, once a day, 28-day courses, cited from earlier work
# 9HTEo- = test: Apoptosis, in situ end labeling of DNA strand breaks, non-cystic fibrosis cells; type: cell-based, human; conditions: for apoptosis by fluorescein staining: no TNF-α
# Protocol: (§3) Adherent epithelial cell lines, CFTE29o- and 9HTEo-, grown on coated coverslips for 24 hours, were treated with fenretinide at the same concentrations used to determine IL-8 release as indicated supra. After a 24-hour incubation with fenretinide, cells were stimulated with TNF-α (experimental group) or with Cisplatin at […] (as a positive control) for an additional 24 hours. Cells were fixed in 4% paraformaldehyde in PBS at pH 7.4 for one hour at room temperature. Cells were subsequently washed and permeabilized using 0.1% TRITON™ X-100 in 0.1% citrate buffer for 2 minutes on ice. After being washed, the coverslips were individually removed from 24-well plates and cells were incubated for one hour at 37° C. with terminal deoxynucleotidyl transferase (Tdt) enzyme conjugated to fluorescein (Roche Diagnostics, Indianapolis, Ind.) for visualization. A negative slide was produced by incubating a slide of both cell lines with buffer minus the Tdt enzyme. The Tdt enzyme binds to the free hydroxyl end of DNA strand breaks. Subsequently, cells were washed twice with PBS and coverslips were placed on slides in the presence of the anti-fade medium VECTASHIELD® to facilitate fluorescence preservation. Slides were individually labeled with numbers to keep the investigator blinded to the outcome until after the slides were reviewed. Four randomly selected fields were visualized at 400× (total magnification) using a fluorescence microscopy and cells that appeared brightly flourescent were counted. Pictures were taken to estimate the number of positive to negative cells per field.
# CFTE29o- = test: Apoptosis, in situ end labeling of DNA strand breaks, CFTR-deficient cells; type: cell-based, human; conditions: for apoptosis by fluorescein staining: no TNF-α
# Protocol: as §3
# [4] = test system: CFTR-deficient cells (CFTE29o-); test: IL-8 release (ELISA) by CFTR-deficient human tracheal epithelial cells; type: cell-based
# Protocol: (§4) General Procedures. Normal (9HTEo-) and CFTR-deficient human tracheal epithelial cells (CFTE29o- ΔF508 CFTR) were used in the analysis disclosed herein and grown in pre-coated T-75 flasks in a medium containing 10% fetal bovine serum (FBS). Cells were re-fed every 2-3 days until they reached confluency. Adherent monolayers were released from the plastic surface after treatment with trypsin-EDTA (Sigma-Aldrich Co., St. Louis, Mo.) and split into 24-well plates for about 24 hours before receiving treatments.
# as §1
# IL-8 Release and Cell Viability Assays. Supernatants were collected from treated cells and the amount of IL-8 released into the medium was determined using an enzyme-linked immunosorbent assay (ELISA) kit (OPTEIA™ Human IL-8 Set; BD PHARMINGEN™, San Diego, Calif.). Briefly, 96-well plates were coated overnight with capture antibody, washed with PBS, 0.05% TWEEN®-20 and coated with PBS, 10% heat-inactivated FBS. Known concentrations of IL-8 (standard) and supernatants containing released IL-8 were added as aliquots into appropriate wells, incubated for 2 hours and subsequently decanted from the wells. Enzyme-conjugated anti-IL-8 antibody was added and incubated for 1 hour. After washing the plate, a substrate for the enzyme was added and the plate incubated for 30 minutes. The reaction was stopped using a 2NH2SO4 solution and the absorbance was read at 450 nm.
# normal cells (9HTEo-) = test: IL-8 release (ELISA) by normal human tracheal epithelial cells; type: cell-based
# Protocol: as §4, §1
# IL-8 Release and Cell Viability Assays. Supernatants were collected from treated cells and the amount of IL-8 released into the medium was determined using an enzyme-linked immunosorbent assay (ELISA) kit (OPTEIA™ Human IL-8 Set; BD PHARMINGEN™, San Diego, Calif.). Briefly, 96-well plates were coated overnight with capture antibody, washed with PBS, 0.05% TWEEN®-20 and coated with PBS, 10% heat-inactivated FBS. […] The reaction was stopped using a 2NH2SO4 solution and the absorbance was read at 450 nm.
# Pseudomonas aeruginosa = test: Pulmonary infection of CFTR knockout and wild-type mice with P. aeruginosa; type: in vivo, mouse
# From the text: Homogenous C57BL/6 Cftr^unc knockout mice generated by insertion of a stop codon in exon 10 of Cftr gene are well-known in the art (Snouwaert, et al. (1992) Science 257:1083-8; Gosselin, et al. (1998) Am. J. Respir. Crit. Care Med. 157:1253-62). Mice used in these studies represent offsprings from B6-Cftr^unc (+/−) mice backcrossed to C57BL/6 mice for 10 to 12 generations.
# Housing Conditions. B6-Cftr (−/−) and B6-Cftr (+/+) mice were housed on corn cob bedding (Anderson, Maumee, Ohio) and fed sterile PEPTAMEN® (Clintec Nutrition, Deerfield, Ill.), a low-residue liquid diet which was previously shown to prevent intestinal obstruction in Cftr^unc knockout mice (Eckman, et al. (1995) Am. J. Physiol. 269:L625-L630). A standard diet was used (Gosselin, et al. (1998) supra), wherein the caloric content of the diet was 420 KJ/100 mL and an adult mouse consumes approximately 15 mL/day. In order to maintain the sterility of the diet, it was changed daily. For one month prior to pulmonary infection with P. aeruginosa, mice were provided fenretinide (prepared in PEPTAMEN®) in the drinking water at 5 mg/kg body weight. The dose was set for each individual mouse based on its weight and adjusted every week (e.g., 147 μg/mouse/day for 30 gram mouse).
# Infection of Mice. […] The number of viable P. aeruginosa entrapped in agar beads was determined by plating serial dilutions of the homogenized bead suspension on TSA plates. […]
# Bronchoalveolar Lavages (BAL). […] Alveolar cells were centrifuged, resuspended in 1 mL PBS, stained with Turk's solution and counted. The proportions of macrophages, lymphocytes, and polymorphonuclear leukocytes (PMN) were calculated after counting 200 alveolar cells on cytospin preparations stained with DIFF-QUICK® (American Scientific Products, McGaw Park, Ill.).
# Measurement of Bacterial Burden. […] Serial 10-fold dilutions of homogenates were plated on petri dishes containing TSA and the number of colony-forming units (CFU) per organs was counted after overnight incubation at 37° C. […]
# [5] = CFTR-deficient and wild-type mice, 5 mg/kg for one month before challenge, 3 days post-infection
compound,measurement,setting,value
"CC1=C(/C=C/C(C)=C/C=C/C(C)=C/C(=O)Nc2ccc(O)cc2)C(C)(C)CCC1 [fenretinide, all-trans-N-(4-hydroxyphenyl)retinamide]",cell numbers,"[1]; CFTR-deficient cells, non-inflammatory condition, 2.5 μM",decrease in CFTR-deficient epithelial cell numbers
same,cell proliferation,"[1]; CFTR-deficient cells, pro-inflammatory and non-inflammatory state, in particular 2.5 μM and higher",significant decrease in cell proliferation
same,cell numbers,"[1]; cystic fibrosis cells, 1.25 μM",did not show a decrease in cell numbers
same,cell proliferation,[2],significant decrease in cell proliferation
same,subjects with side effects,[3]; subjects 2-21 years with neuroblastoma,15 of the 45
same,time to reversal of side effects after discontinuation of treatment,[3],≤ 7 days
same,apoptosis in the presence of TNF-α,"9HTEo-; TNF-α, both doses (1.25 and 2.5 μM)",significant apoptosis
same,apoptosis by fluorescein staining,9HTEo-; 1.25 μM,weaker fluorescence and an earlier stage of apoptosis
same,apoptosis by fluorescein staining,9HTEo-; 2.5 μM,strong fluorescence and classic apoptotic morphology
same,apoptosis in the presence of TNF-α,"CFTE29o-; CFTR-deficient cells, TNF-α, 1.25 and 2.5 μM",no enhancement of apoptosis
same,apoptosis by fluorescein staining,"CFTE29o-; CFTR-deficient cells, 1.25 μM","no morphology of apoptosis, weak fluorescence was observed"
same,apoptosis by fluorescein staining,"CFTE29o-; CFTR-deficient cells, 2.5 μM",early stage apoptosis
same,"IL-8 level as % of the TNF-α-stimulated value, dose-dependent reduction","[4]; CFTE29o-, TNF-α 10 ng/mL, fenretinide 1.25-5 μM, greatest reduction",70%
same,threshold level for significance of IL-8 reduction,"[4]; CFTE29o-, TNF-α-stimulated",2.5 µM
same,activity at 1.25 µM,"[4]; Homo sapiens, Epithelial cell, CFTE29o-, TNF-α 10 ng/mL, 1.25 μM fenretinide, not significantly different from control, read-out: IL-8 level as % of control (TNF-α only)",86%
same,increase of IL-8 levels in the absence of TNF-α stimulation,"[4]; cystic fibrosis cells, no TNF-α, fenretinide 1.25-5 μM, dose-dependent",2- to 8 fold
same,IL-8 maximum level as % of that secreted by TNF-α-stimulated cells,"normal cells (9HTEo-); 9HTEo-, TNF-α 10 ng/mL, fenretinide 1.25-5 μM",139%
same,threshold level of IL-8 enhancement,"normal cells (9HTEo-); 9HTEo-, TNF-α-stimulated",2.5 µM
same,enhancement in basal IL-8 release,"normal cells (9HTEo-); non-cystic fibrosis cells, no TNF-α, all treatment doses",greater than 14 fold
same,bacterial burden in lungs,Pseudomonas aeruginosa; [5],reduced
same,recruitment of inflammatory cells to the lungs,Pseudomonas aeruginosa; [5],decrease in the recruitment of inflammatory cells
same,reduction in P. aeruginosa cell numbers as compared to controls,Pseudomonas aeruginosa; cystic fibrosis mice pretreated with fenretinide,approximately 40%
N.N.[Cl][Pt][Cl] [cisplatin],apoptotic effect of positive control,"CFTE29o-; CFTR-deficient epithelial cells, as opposed to non-cystic fibrosis cells",resistant to the apoptotic effects
